Results taken from patent publication US11596639B2, “Substituted indole Mcl-1 inhibitors” (Vanderbilt University, priority 2016, dated 2023).
Like-named read-outs stand apart in the source and are kept apart here.

Tests used:
Mcl-1 = Mcl-1 (Homo sapiens (Human), UniProt Q07820); assay: Fluorescence polarization anisotropy (FPA) competition assay, FITC-Bak or FITC-Bim BH3 peptide; format: binding; conditions: read-out: Ki for Inhibition of Mcl-1 by FPA assay
[1] = system: H929 human cancer cell lines; assay: Cellular viability / proliferation (Cell TiterGlo, 72 h); format: cell-based
Summary of the method: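 H929 cells plated at 1,000/well in 10% FBS medium received a 2-fold serial compound dilution (top 50 μM, DMSO <1%) 24 h later. After 72 h, viability was read by CellTiter-Glo luminescence. IC50 came from a four-parameter fit.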

[2] = Homo sapiens, NCI-H929, 72 h, read-out: GI50 on cellular proliferation of H929 human cancer cell lines, H929 cells, 72 h, Cell TiterGlo, 10% FBS

Sequence of Mcl-1 (Q07820 172-327): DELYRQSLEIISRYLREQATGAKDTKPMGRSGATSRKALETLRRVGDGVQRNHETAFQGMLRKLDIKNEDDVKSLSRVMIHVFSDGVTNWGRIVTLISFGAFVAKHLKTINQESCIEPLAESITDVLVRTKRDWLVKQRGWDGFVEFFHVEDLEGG

## Cc1cc(OCCCc2c3n(c4c(-c5c(C)nn(CC6CCOCC6)c5C)c(Cl)ccc24)[C@H](C)CN(c2cn(C)c4ccc(C(=O)O)cc24)C3=O)cc(C)c1Cl [Example 262, (R)-3-(7-chloro-10-(3-(4-chloro-3,5-dimethylphenoxy)propyl)-6-(3,5-dimethyl-1-((tetrahydro-2H-pyran-4-yl)methyl)-1H-pyrazol-4-yl)-4-methyl-1-oxo-3,4-dihydropyrazino[1,2-a]indol-2(1H)-yl)-1-methyl-1H-indole-5-carboxylic acid]
Mcl-1
  Ki: < 1 nM
[1]; [2]
  GI50: 450 nM

## Cc1cc(OCCCc2c3n(c4c(-c5c(C)n[nH]c5C)c(Cl)ccc24)[C@H](C)CN(c2cc(C(=O)O)cc4c2ccn4C)C3=O)cc(C)c1Cl [Example 71, (R)-4-(7-chloro-10-(3-(4-chloro-3,5-dimethylphenoxy)propyl)-6-(3,5-dimethyl-1H-pyrazol-4-yl)-4-methyl-1-oxo-3,4-dihydropyrazino[1,2-a]indol-2(1H)-yl)-1-methyl-1H-indole-6-carboxylic acid]
Mcl-1
  Ki: < 1 nM
[1]; [2]
  GI50: 3300 nM

## Cc1cc(OCCCc2c3n(c4c(-c5c(C)nn(C)c5C)c(Cl)ccc24)[C@H](C)CN(c2cn(CCN4CCOCC4)c4cc(C(=O)O)ccc24)C3=O)cc(C)c1Cl [Example 292, (R)-3-(7-chloro-10-(3-(4-chloro-3,5-dimethylphenoxy)propyl)-4-methyl-1-oxo-6-(1,3,5-trimethyl-1H-pyrazol-4-yl)-3,4-dihydropyrazino[1,2-a]indol-2(1H)-yl)-1-(2-morpholinoethyl)-1H-indole-6-carboxylic acid]
Mcl-1
  Ki: < 1 nM
[1]; [2]
  GI50: 690 nM

## COc1cc(N2C[C@@H](C)n3c(c(CCCOc4cc(C)c(Cl)c(C)c4)c4ccc(Cl)c(-c5c(C)nn(C)c5C)c43)C2=O)c2c(c1)cc(C(=O)O)n2C [Example 342, (R)-7-(7-Chloro-10-(3-(4-chloro-3,5-dimethylphenoxy)propyl)-4-methyl-1-oxo-6-(1,3,5-trimethyl-1H-pyrazol-4-yl)-3,4-dihydropyrazino[1,2-a]indol-2(1H)-yl)-5-methoxy-1-methyl-1H-indole-2-carboxylic acid]
Mcl-1
  Ki: < 1 nM
[1]; [2]
  GI50: 230 nM

## Cc1cc(OCCCc2c3n(c4c(-c5c(C)nn(C)c5C)c(Cl)ccc24)[C@H](C)CN(c2cccc4c2ccn4CC(=O)O)C3=O)cc(C)c1Cl [Example 134, (R)-2-(4-(7-Chloro-10-(3-(4-chloro-3,5-dimethylphenoxy)propyl)-4-methyl-1-oxo-6-(1,3,5-trimethyl-1H-pyrazol-4-yl)-3,4-dihydropyrazino[1,2-a]indol-2(1H)-yl)-1H-indol-1-yl)acetic acid]
Mcl-1
  Ki: < 1 nM
[1]; [2]
  GI50: 11000 nM

## Cc1cc(OCCCc2c3n(c4c(-c5c(C)nn(C)c5C)c(Cl)ccc24)[C@H](C)CN(c2cc(C(=O)O)cc4[nH]ccc24)C3=O)cc(C)c1Cl [Example 100, (R)-4-(7-chloro-10-(3-(4-chloro-3,5-dimethylphenoxy)propyl)-4-methyl-1-oxo-6-(1,3,5-trimethyl-1H-pyrazol-4-yl)-3,4-dihydropyrazino[1,2-a]indol-2(1H)-yl)-1H-indole-6-carboxylic acid]
Mcl-1
  Ki: < 1 nM
[1]; [2]
  GI50: 5800 nM

## Cc1cc(OCCCc2c3n(c4c(-c5c(C)nn(C)c5C)c(Cl)ccc24)[C@H](C)CN(c2cccc4c(C)c(C(=O)O)n(C)c24)C3=O)cc(C)c1Cl [Example 316, (R)-7-(7-Chloro-10-(3-(4-chloro-3,5-dimethylphenoxy)propyl)-4-methyl-1-oxo-6-(1,3,5-trimethyl-1H-pyrazol-4-yl)-3,4-dihydropyrazino[1,2-a]indol-2(1H)-yl)-1,3-dimethyl-1H-indole-2-carboxylic acid]
Mcl-1
  Ki: < 1 nM
[1]; [2]
  GI50: 470 nM

## Cc1ccnc(Cn2c(C(=O)O)cc3cccc(N4C[C@@H](C)n5c(c(CCCOc6cc(C)c(Cl)c(C)c6)c6ccc(Cl)c(-c7c(C)nn(C)c7C)c65)C4=O)c32)c1 [Example 371, (R)-7-(7-Chloro-10-(3-(4-chloro-3,5-dimethylphenoxy)propyl)-4-methyl-1-oxo-6-(1,3,5-trimethyl-1H-pyrazol-4-yl)-3,4-dihydropyrazino[1,2-a]indol-2(1H)-yl)-1-((4-methylpyridin-2-yl)methyl)-1H-indole-2-carboxylic acid]
Mcl-1
  Ki: < 1 nM
[1]; [2]
  GI50: 300 nM

## Cc1cc(N2C[C@@H](C)n3c(c(CCCOc4cc(C)c(Cl)c(C)c4)c4ccc(Cl)c(-c5c(C)nc(CN6CCN(C)CC6)nc5C)c43)C2=O)c2c(c1)cc(C(=O)O)n2C [Example 426, (R)-7-(7-Chloro-10-(3-(4-chloro-3,5-dimethylphenoxy)propyl)-6-(4,6-dimethyl-2-((4-methylpiperazin-1-yl)methyl)pyrimidin-5-yl)-4-methyl-1-oxo-3,4-dihydropyrazino[1,2-a]indol-2(1H)-yl)-1,5-dimethyl-1H-indole-2-carboxylic acid]
Mcl-1
  Ki: < 1 nM
[1]; [2]
  GI50: 250 nM

## Cc1cc(OCCCc2c3n(c4c(-c5c(C)nn(C)c5C)c(Cl)ccc24)[C@H](C)CN(c2cn(C)c4ccc(-c5ccn(C)n5)cc24)C3=O)cc(C)c1Cl [Example 388, (R)-7-Chloro-10-(3-(4-chloro-3,5-dimethylphenoxy)propyl)-4-methyl-2-(1-methyl-5-(1-methyl-1H-pyrazol-3-yl)-1H-indol-3-yl)-6-(1,3,5-trimethyl-1H-pyrazol-4-yl)-3,4-dihydropyrazino[1,2-a]indol-1(2H)-one]
Mcl-1
  Ki: 1.5 nM
[1]; [2]
  GI50: 330 nM

## COCCn1c(C(=O)O)cc2cc(C)cc(N3C[C@@H](C)n4c(c(CCCOc5cc(C)c(Cl)c(C)c5)c5ccc(Cl)c(-c6c(C)nn(C)c6C)c54)C3=O)c21 [Example 470, (R)-7-(7-Chloro-10-(3-(4-chloro-3,5-dimethylphenoxy)propyl)-4-methyl-1-oxo-6-(1,3,5-trimethyl-1H-pyrazol-4-yl)-3,4-dihydropyrazino[1,2-a]indol-2(1H)-yl)-1-(2-methoxyethyl)-5-methyl-1H-indole-2-carboxylic acid]
Mcl-1
  Ki: < 1 nM
[1]; [2]
  GI50: < 200 nM

## Cc1cc(OCCCc2c3n(c4c(-c5c(C)nn(C)c5C)c(Cl)ccc24)CCCN(c2cc(C(=O)O)c4cn[nH]c4c2)C3=O)cc(C)c1Cl [Example 44, 6-[8-chloro-11-[3-(4-chloro-3,5-dimethyl-phenoxy)propyl]-1-oxo-7-(1,3,5-trimethylpyrazol-4-yl)-4,5-dihydro-3H-[1,4]diazepino[1,2-a]indol-2-yl]-1H-indazole-4-carboxylic acid]
Mcl-1
  Ki: < 1 nM
[1]; [2]
  GI50: 14000 nM

## Cc1cc(OCCCc2c3n(c4c(-c5c(C)nn(CCN6CCCC6)c5C)c(Cl)ccc24)[C@H](C)CN(c2cccc4c2cc(C(=O)O)n4C)C3=O)cc(C)c1Cl [Example 318, (R)-4-(7-Chloro-10-(3-(4-chloro-3,5-dimethylphenoxy)propyl)-6-(3,5-dimethyl-1-(2-(pyrrolidin-1-yl)ethyl)-1H-pyrazol-4-yl)-4-methyl-1-oxo-3,4-dihydropyrazino[1,2-a]indol-2(1H)-yl)-1-methyl-1H-indole-2-carboxylic acid]
Mcl-1
  Ki: 1.5 nM
[1]; [2]
  GI50: 820 nM

## Cc1cc(OCCCc2c3n(c4c(-c5c(C)nn(C)c5C)c(Cl)ccc24)[C@H](C)CN(c2c[nH]c4ccc(-c5ncn(C)n5)cc24)C3=O)cc(C)c1Cl [Example 471, (R)-7-chloro-10-(3-(4-chloro-3,5-dimethylphenoxy)propyl)-4-methyl-2-(5-(1-methyl-1H-1,2,4-triazol-3-yl)-1H-indol-3-yl)-6-(1,3,5-trimethyl-1H-pyrazol-4-yl)-3,4-dihydropyrazino[1,2-a]indol-1(2H)-one]
Mcl-1
  Ki: 2.3 nM
[1]; [2]
  GI50: 360 nM

## Cc1cc(OCCCc2c3n(c4c(-c5c(C)nn(C)c5C)c(Cl)ccc24)[C@H](C)CN(c2ccc(F)c4c(C(=O)O)c[nH]c24)C3=O)cc(C)c1Cl [Example 438, (R)-7-(7-Chloro-10-(3-(4-chloro-3,5-dimethylphenoxy)propyl)-4-methyl-1-oxo-6-(1,3,5-trimethyl-1H-pyrazol-4-yl)-3,4-dihydropyrazino[1,2-a]indol-2(1H)-yl)-4-fluoro-1H-indole-3-carboxylic acid]
Mcl-1
  Ki: 1.1 nM
[1]; [2]
  GI50: 2800 nM

## Cc1cc(OCCCc2c3n(c4c(-c5c(C)nn(C)c5C)c(Cl)ccc24)[C@H](C)CN(c2cn(C)c4ccc(-c5cccnn5)cc24)C3=O)cc(C)c1Cl [Example 424, (R)-7-Chloro-10-(3-(4-chloro-3,5-dimethylphenoxy)propyl)-4-methyl-2-(1-methyl-5-(pyridazin-3-yl)-1H-indol-3-yl)-6-(1,3,5-trimethyl-1H-pyrazol-4-yl)-3,4-dihydropyrazino[1,2-a]indol-1(2H)-one]
Mcl-1
  Ki: 2.6 nM
[1]; [2]
  GI50: 1300 nM

## Cc1cc(N2C[C@@H](C)n3c(c(CCCOc4cc(C)c(Cl)c(C)c4)c4ccc(Cl)c(-c5c(C)nn(C)c5C)c43)C2=O)c2c(c1)c(C(=O)O)cn2C [Example 183, (R)-7-(7-chloro-10-(3-(4-chloro-3,5-dimethylphenoxy)propyl)-4-methyl-1-oxo-6-(1,3,5-trimethyl-1H-pyrazol-4-yl)-3,4-dihydropyrazino[1,2-a]indol-2(1H)-yl)-1,5-dimethyl-1H-indole-3-carboxylic acid]
Mcl-1
  Ki: < 1 nM
[1]; read-out: GI50 on cellular proliferation of H929 human cancer cell lines, H929 cells, 72 h, Cell TiterGlo, 10% FBS
  GI50: 360 nM

## Cc1cc(OCCCc2c3n(c4c(-c5c(C)nc(CNC6CCN(C)CC6)nc5C)c(Cl)ccc24)[C@H](C)CN(c2cn(C)c4ccc(C(=O)O)cc24)C3=O)cc(C)c1Cl [Example 437, (R)-3-(7-Chloro-10-(3-(4-chloro-3,5-dimethylphenoxy)propyl)-6-(4,6-dimethyl-2-(((1-methylpiperidin-4-yl)amino)methyl)pyrimidin-5-yl)-4-methyl-1-oxo-3,4-dihydropyrazino[1,2-a]indol-2(1H)-yl)-1-methyl-1H-indole-5-carboxylic acid]
Mcl-1
  Ki: 4.7 nM
[1]; [2]
  GI50: 1200 nM
